What was measured:
[1] = Biodistribution of 18F-labelled tracers in rats; type: in vivo
Description: [^18F]Fluoride, in the form of H^18F, was produced by the ^18O(p,n)^18F nuclear reaction by bombardment of ^18O-enriched water target. The aqueous [^18F]fluoride solution was added to a 2.5-mL wheaton vial containing dry acetonitrile (1 mL), Kryptofix 2.2.2 (5 mg, 13.3 μmol) and potassium carbonate (2 mg, 14.5 μmol). The solvent was evaporated under a stream of nitrogen at 90° C. with a reducing vacuum. This azeotropic drying was repeated twice by further addition of acetonitrile (2×1 mL). The tosylate precursor 2-(2-(4-(2-tosylethoxy)phenyl)-6-chloroimidazo[1,2-a]pyridin-3-yl)-N,N-diethylacetamide (2 mg, 3.6 μmol) was dissolved in acetonitrile (1 ml) and added to the dried K222.K2CO3.KF complex. Stirring and heating at 90° C. continued for 10 to 15 mins before the reaction mixture was diluted with mobile phase and purified by reverse phase HPLC on an Alltech Alltima, C18, 10μ, 250×22 mm column eluting at 10 mLs/min with 45% acetonitrile, 55% water with 0.1% TFA.
(§1) The biodistribution of PBR132* was undertaken in SD rats and analysis up to 4 h p.i. in the brain and peripheral tissues was performed. The specificity and selectivity of the tracer were assessed by pre-treatment with PBR and Central benzodiazepine receptor (CBR) specific ligands (1 mg/kg) 5 min prior to injection of PBR132*.
(§2) The biodistribution of PBR 147* was performed in SD rats and brain and peripheral tissues were analysised at 15, 30 min, 1, and 4 h p.i. The specificity and selectivity of the tracer was assessed by pre-treatment of the animals with the PBR ligands PK11195 and Ro 5-4864 and with Flumazenil for CBR at 1 mg/kg 5 min prior to injection of PBR 147*
(§3) The biodistribution of PBR102* and PBR111* were performed in SD rats and brain and peripheral tissues analysed at 15, 30 min, 1, and 4 h p.i. The specificity and selectivity of the tracers were assessed by pre-treatment with the PBR ligands PK11195 and Ro 5-4864 and with Flumazenil for CBR at 1 mg/kg 5 min prior to injection of the corresponding tracers.
(§4) The specificity and selectivity of the tracers were assessed by pre-treatment with the PBR ligands PK11195 and Ro 5-4864 and with Flumazenil for CBR at 1 mg/kg 5 min prior to injection of the corresponding tracers.

[2] = target: T1, peripheral benzodiazepine receptors (Rattus norvegicus, UniProt P16257); experiment: In vivo blocking / competition of tracer uptake by pre-treatment with PBR and CBR ligands; conditions: rats
T1 construct: high uptake in the tissues which have known PBR sites; from tissue; host or cells: organs of living SD rats (brain and peripheral tissues), in vivo
Description: The criteria for significance were **p<0.01 (highly significant) and *p<0.05 (significant). No stars implies not statistical difference from normals or controls.
as §1, §2, §3, §4

[3] = SD rats, 15 min, decay correction not stated
[4] = SD rats, 4 hours, decay correction not stated
[5] = rats, 15 min, corrected for decay of 18F
[6] = rats, 30 min, corrected for decay of 18F
[7] = rats, 60 min, corrected for decay of 18F
[8] = rats, 4 hours, corrected for decay of 18F

CCN(CC)C(=O)Cc1c(-c2ccc(OCCCF)cc2)nn2c(C)cc(C)nc12 [PBR146*]
Biodistribution: Blood [1, 3]: 0.4 % ID/g
Biodistribution: Bone [1, 3]: 1.0 % ID/g
Biodistribution: Kidney [1, 3]: 5.5 % ID/g
Biodistribution: Olfactory bulbs [1, 3]: 0.41 % ID/g
Biodistribution: Adrenals ([1]; SD rats, 30 min, decay correction not stated): 7.9 % ID/g
Biodistribution: Adrenals [1, 4]: 12.2 % ID/g
Biodistribution: Blood [1, 4]: 0.1 % ID/g
Biodistribution: Bone [1, 4]: 5.0 % ID/g
Biodistribution: Kidney [1, 4]: 3.2 % ID/g
Biodistribution: Olfactory bulbs [1, 4]: 0.31 % ID/g
Biodistribution: Adrenals [1, 5]: 8.05 ± 0.66 % ID/g
Biodistribution: Bladder [1, 5]: 0.63 ± 0.14 % ID/g
Biodistribution: Blood [1, 5]: 0.38 ± 0.08 % ID/g
Biodistribution: Bone [1, 5]: 1.06 ± 0.17 % ID/g
Biodistribution: Brain [1, 5]: 0.27 ± 0.03 % ID/g
Biodistribution: Heart [1, 5]: 8.99 ± 0.69 % ID/g
Biodistribution: Kidney [1, 5]: 5.53 ± 1.20 % ID/g
Biodistribution: Liver [1, 5]: 1.08 ± 0.05 % ID/g
Biodistribution: Lungs [1, 5]: 20.42 ± 4.32 % ID/g
Biodistribution: Muscle [1, 5]: 1.10 ± 0.15 % ID/g
Biodistribution: Olfactory bulbs [1, 5]: 0.41 ± 0.10 % ID/g
Biodistribution: Pancreas [1, 5]: 2.20 ± 0.68 % ID/g
Biodistribution: Skin [1, 5]: 0.53 ± 0.11 % ID/g
Biodistribution: Spleen [1, 5]: 5.49 ± 0.90 % ID/g
Biodistribution: Stomach [1, 5]: 0.69 ± 0.12 % ID/g
Biodistribution: Testes [1, 5]: 0.269 ± 0.022 % ID/g
Biodistribution: Thymus [1, 5]: 0.80 ± 0.07 % ID/g
Biodistribution: Thyroid [1, 5]: 7.71 ± 2.92 % ID/g
Biodistribution: Adrenals [1, 6]: 7.94 ± 1.52 % ID/g
Biodistribution: Bladder [1, 6]: 0.71 ± 0.22 % ID/g
Biodistribution: Blood [1, 6]: 0.26 ± 0.03 % ID/g
Biodistribution: Bone [1, 6]: 1.46 ± 0.27 % ID/g
Biodistribution: Brain [1, 6]: 0.15 ± 0.02 % ID/g
Biodistribution: GIT [1, 6]: 1.25 ± 0.09 % ID/g
Biodistribution: Heart [1, 6]: 9.05 ± 0.51 % ID/g
Biodistribution: Kidney [1, 6]: 4.91 ± 0.21 % ID/g
Biodistribution: Liver [1, 6]: 0.98 ± 0.21 % ID/g
Biodistribution: Lungs [1, 6]: 12.36 ± 1.28 % ID/g
Biodistribution: Muscle [1, 6]: 0.82 ± 0.13 % ID/g
Biodistribution: Olfactory bulbs [1, 6]: 0.45 ± 0.07 % ID/g
Biodistribution: Pancreas [1, 6]: 1.59 ± 0.10 % ID/g
Biodistribution: Skin [1, 6]: 0.55 ± 0.05 % ID/g
Biodistribution: Spleen [1, 6]: 5.53 ± 0.36 % ID/g
Biodistribution: Stomach [1, 6]: 1.03 ± 0.16 % ID/g
Biodistribution: Testes [1, 6]: 0.285 ± 0.024 % ID/g
Biodistribution: Thymus [1, 6]: 0.84 ± 0.11 % ID/g
Biodistribution: Thyroid [1, 6]: 7.69 ± 2.21 % ID/g
Biodistribution: Adrenals [1, 7]: 11.02 ± 1.88 % ID/g
Biodistribution: Bladder [1, 7]: 0.89 ± 0.25 % ID/g
Biodistribution: Blood [1, 7]: 0.18 ± 0.02 % ID/g
Biodistribution: Bone [1, 7]: 2.07 ± 0.27 % ID/g
Biodistribution: Brain [1, 7]: 0.12 ± 0.01 % ID/g
Biodistribution: GIT [1, 7]: 1.51 ± 0.21 % ID/g
Biodistribution: Heart [1, 7]: 8.57 ± 1.01 % ID/g
Biodistribution: Kidney [1, 7]: 4.70 ± 0.24 % ID/g
Biodistribution: Liver [1, 7]: 0.69 ± 0.26 % ID/g
Biodistribution: Lungs [1, 7]: 7.12 ± 0.95 % ID/g
Biodistribution: Muscle [1, 7]: 0.67 ± 0.04 % ID/g
Biodistribution: Olfactory bulbs [1, 7]: 0.25 ± 0.06 % ID/g
Biodistribution: Pancreas [1, 7]: 1.41 ± 0.22 % ID/g
Biodistribution: Skin [1, 7]: 0.67 ± 0.06 % ID/g
Biodistribution: Spleen [1, 7]: 5.14 ± 0.38 % ID/g
Biodistribution: Stomach [1, 7]: 1.27 ± 0.45 % ID/g
Biodistribution: Testes [1, 7]: 0.319 ± 0.028 % ID/g
Biodistribution: Thymus [1, 7]: 0.96 ± 0.17 % ID/g
Biodistribution: Thyroid [1, 7]: 13.37 ± 0.46 % ID/g
Biodistribution: Adrenals [1, 8]: 12.21 ± 1.56 % ID/g
Biodistribution: Bladder [1, 8]: 1.26 ± 0.16 % ID/g
Biodistribution: Blood [1, 8]: 0.10 ± 0.01 % ID/g
Biodistribution: Bone [1, 8]: 4.12 ± 0.23 % ID/g
Biodistribution: Brain [1, 8]: 0.08 ± 0.01 % ID/g
Biodistribution: GIT [1, 8]: 1.54 ± 0.11 % ID/g
Biodistribution: Heart [1, 8]: 5.76 ± 0.92 % ID/g
Biodistribution: Kidney [1, 8]: 3.23 ± 0.26 % ID/g
Biodistribution: Liver [1, 8]: 0.38 ± 0.09 % ID/g
Biodistribution: Lungs [1, 8]: 3.25 ± 0.21 % ID/g
Biodistribution: Muscle [1, 8]: 0.31 ± 0.06 % ID/g
Biodistribution: Olfactory bulbs [1, 8]: 0.31 ± 0.08 % ID/g
Biodistribution: Pancreas [1, 8]: 0.77 ± 0.16 % ID/g
Biodistribution: Skin [1, 8]: 0.71 ± 0.07 % ID/g
Biodistribution: Spleen [1, 8]: 3.61 ± 0.19 % ID/g
Biodistribution: Stomach [1, 8]: 0.34 ± 0.04 % ID/g
Biodistribution: Testes [1, 8]: 0.426 ± 0.043 % ID/g
Biodistribution: Thymus [1, 8]: 1.35 ± 0.15 % ID/g
Biodistribution: Thyroid [1, 8]: 10.68 ± 1.44 % ID/g

CN(C(=O)Cc1c(-c2ccc(OCCC[18F])cc2)nc2c(Cl)cc(Cl)cn12)c1ccccc1 [PBR147*, 2-(2-(4-(3-fluoropropoxy)phenyl)-6,8-dichloroimidazo[1,2-a]pyridin-3-yl)-N-methyl-N-phenylacetamide]
Tracer uptake after pre-treatment with PK 11195 ([2]; PK 11195 1 mg/kg 5 min prior to tracer, PBR-expressing tissues (brain/peripheral organs, adrenals apart)): blocking effect
Tracer uptake after pre-treatment with Ro 5-4864 ([2]; Ro 5-4864 1 mg/kg 5 min prior to tracer, PBR-expressing tissues (brain/peripheral organs, adrenals apart)): blocking effect
Tracer uptake after pre-treatment with flumazenil (central benzodiazepine ligand) ([2]; flumazenil 1 mg/kg 5 min prior to tracer, brain or peripheral organs): does not reduce
Tracer uptake after pre-treatment with the non-radioactive analogue ([2]; non-radioactive analogue 1 mg/kg, PBR-expressing tissues): blocking effect

Source: patent US20100209345A1, “Fluorinated Ligands for Targeting Peripheral Benzodiazepine Receptors” (Australian Nuclear Science & Technology Organisation, priority 2006, published 2010)
